From ChEMBL document CHEMBL1122223, “New developments in Ca2+ channel antagonists” (J Med Chem, 1983) come the findings set out here.

For test [1], the species on record is Oryctolagus cuniculus. The experiment in a line: Inhibition of contraction in rabbit aorta, K+. The format is functional. The conditions noted are these: read-out: ID50 (the source's name).
The species named for test [2] is Oryctolagus cuniculus. The experiment in a line: Inhibition of [Ca2+] uptake in rabbit aorta, K+. The format is functional. The conditions noted are these: read-out: ID50 (the source's name).
The species entered for test [3] is Rattus norvegicus. The test can be described thus: Inhibition of contraction in rat aorta, K+. The conditions noted are these: read-out: ID50.
The species named for test [4] is Rattus norvegicus. The experiment in a line: Inhibition of [Ca2+] uptake in rat aorta, K+. The conditions noted are these: read-out: ID50.
The species named for test [5] is Canis familiaris. The experiment in a line: Antagonistic activity against K+ induced responses in canine coronary. The format is functional, Canis lupus familiaris.
The species entered for test [6] is Canis familiaris. The test can be described thus: Antagonistic activity against norepinephrine induced contraction in canine coronary. It is filed as functional, Canis lupus familiaris.
Test [7] is filed under the species Cavia porcellus. The test can be described thus: [Ca2+] antagonistic activity on contraction in guinea pig atria. The format is functional. Particulars: read-out: ID50 (the source's name).
For test [8], the species on record is Felis catus. The experiment in a line: [Ca2+] antagonistic activity on [Ca2+] current in cat ventricular trabeculae. It is filed as functional.
The species entered for test [9] is Felis catus. The test can be described thus: [Ca2+] antagonistic activity on [Ca2+] current in cat papillary. The format is functional, Papillary muscle.
Test [10] is filed under the species Cavia porcellus. The experiment in a line: Antagonistic activity against K+ induced responses in guinea pig ileum. The format is functional. The conditions noted are these: read-out: ID50 (the source's name).
For test [11], the species on record is Cavia porcellus. The experiment in a line: Antagonistic activity against ACh in guinea pig ileum. The format is functional. Particulars: read-out: ID50 (the source's name).
The species named for test [12] is Oryctolagus cuniculus. The test can be described thus: Antagonistic activity against 5-HT in rabbit saphenous. The format is functional, Saphenous vein.
Test [13] is filed under the species Oryctolagus cuniculus. The experiment in a line: Antagonistic activity against K+ induced responses in rabbit saphenous. The format is functional, Saphenous vein.
Test [14] is filed under the species Oryctolagus cuniculus. The experiment in a line: Antagonistic activity against K+ induced responses in rabbit basilar. The format is functional.
The species entered for test [15] is Oryctolagus cuniculus. The test can be described thus: Antagonistic activity against 5-HT induced responses in rabbit basilar. The format is functional.
Test [16] can be described thus: Dissociation constant for low affinity binding sites in intact cultured cardiac cells.
The species entered for test [17] is Rattus norvegicus. The test can be described thus: Effective concentration for negative inotropic effect. The format is functional, organism-based.
The species named for test [18] is Cavia porcellus. The experiment in a line: [Ca2+] antagonistic activity on [Ca2+] current in guinea pig single ventricular cells. It is filed as functional. Particulars: read-out: ID50 (the source's name).
Test [19] can be described thus: Dissociation constant for binding to isolated membranes from clonal cell line.
For a further test, the system named is PC-12. The experiment in a line: Ability to block depolarization induced 45Ca uptake into pheochromocytoma PC12 cells. The format is functional, cell-based. Particulars: Rattus norvegicus.
The nature of test [20]: Dissociation constant for high affinity binding sites in intact cultured cardiac cells.
For test [21], the species on record is Canis familiaris. The experiment in a line: Antagonistic activity against K+ induced responses in canine trachea. The format is functional. The conditions noted are these: Canis lupus familiaris, read-out: ID50 (the source's name).
Test [22] is filed under the species Canis familiaris. The test can be described thus: Antagonistic activity against ACh induced responses in canine trachea. It is filed as functional. The conditions noted are these: Canis lupus familiaris, read-out: ID50 (the source's name).
The species named for test [23] is Oryctolagus cuniculus. The test can be described thus: Antagonistic activity against K+ induced responses in rabbit aorta. The format is functional. The conditions noted are these: read-out: ID50 (the source's name).
Test [24] is filed under the species Oryctolagus cuniculus. The test can be described thus: Inhibition of contraction in rabbit pulmonary artery, K+. Particulars: read-out: ID50 (the source's name). The format is functional.
For test [25], the species on record is Oryctolagus cuniculus. The experiment in a line: Inhibition of [Ca2+] uptake in rabbit pulmonary artery, K+. It is filed as functional. Particulars: read-out: ID50 (the source's name).
For test [26], the species on record is Oryctolagus cuniculus. The test can be described thus: Antagonistic activity against norepinephrine (NE) induced responses in rabbit aorta. The format is functional. Particulars: read-out: ID50 (the source's name).

Take `COc1ccc([C@@H]2Sc3ccccc3N(CCN(C)C)C(=O)[C@@H]2OC(C)=O)cc1` [DILTIAZEM]: the IC50 in the test listed under Oryctolagus cuniculus [1] turned out to be 0.5 µM; in the test filed under Oryctolagus cuniculus [2], 0.3 µM.
Take `Fc1ccc(C(c2ccc(F)cc2)N2CCN(C/C=C/c3ccccc3)CC2)cc1` [FLUNARIZINE]: the IC50 in the test filed under Rattus norvegicus [3] is 0.22 µM; in the test filed under Rattus norvegicus [4] it was 0.18 µM.
As to `COc1ccc(CCN(C)CCCC(C#N)(c2cc(OC)c(OC)c(OC)c2)C(C)C)cc1OC` (stereo not given) [GALLOPAMIL], the IC50 in the test listed under Oryctolagus cuniculus [1] is 0.2 µM; in the test listed under Oryctolagus cuniculus [2] it was 0.15 µM; in the test filed under Cavia porcellus [7] it was less than 1 µM. For the same compound, the ID50 worked out at 0.2 µM in the test listed under Canis familiaris [5] and 0.5 µM in the test listed under Canis familiaris [6].
As to `COC(=O)C1=C(C)NC(C)=C(C(=O)OCCN(C)Cc2ccccc2)C1c1cccc([N+](=O)[O-])c1` (stereo not given) [NICARDIPINE], the IC50 in the test listed under Oryctolagus cuniculus [1] amounted to 0.0019 µM; in the test listed under Oryctolagus cuniculus [2] it was 0.001 µM.
`COC(=O)C1=C(C)NC(C)=C(C(=O)OC)C1c1ccccc1[N+](=O)[O-]` [NIFEDIPINE]: the ID50 in the test filed under Felis catus [8] and in the test listed under Felis catus [9] was 0.6 µM each time. Moreover, the results for the IC50 in the test listed under Cavia porcellus [7], in the test filed under Cavia porcellus [10] and in the test listed under Cavia porcellus [11] were 1 µM, 0.003 µM and 0.005 µM, respectively.
Turning to `COCCOC(=O)C1=C(C)NC(C)=C(C(=O)OC(C)C)C1c1cccc([N+](=O)[O-])c1` (stereo not given) [NIMODIPINE], the ID50 is greater than 0.0001 M in the test listed under Oryctolagus cuniculus [12], 0.0003 µM in the test filed under Oryctolagus cuniculus [13], 0.0002 µM in the test listed under Oryctolagus cuniculus [14] and 0.0007 µM in the test listed under Oryctolagus cuniculus [15].
The term Kd denotes the free concentration of one partner at which half of the binding sites on the other are occupied at equilibrium, for simple one-to-one binding. For orientation: EC50 means the midpoint of the concentration-response curve. Read a high EC50 as weaker potency. As for `CCOC(=O)C1=C(C)NC(C)=C(C(=O)OC)C1c1cccc([N+](=O)[O-])c1` (stereo not given) [NITRENDIPINE], the values for the Kd in test [16], in [19] and in test [20] were 0.016 µM, 0.01 µM and 0.00026 µM, respectively. A half-maximal response in the test filed under Rattus norvegicus [17] (EC50) required 0.028 µM. The IC50 in the test filed under Cavia porcellus [18] stood at 0.2 µM; with PC-12, 0.01 µM.
Regarding `COc1ccc(CCN(C)CCCC(C#N)(c2ccc(OC)c(OC)c2)C(C)C)cc1OC` (stereo not given) [VERAPAMIL], the IC50 in the test listed under Oryctolagus cuniculus [1] was 0.17 µM; in the test listed under Oryctolagus cuniculus [2], 0.0068 µM; in the test listed under Canis familiaris [21], less than 1000 µM; in the test listed under Canis familiaris [22] it was greater than 1000 µM; in the test filed under Oryctolagus cuniculus [23], 0.03 µM; in the test filed under Oryctolagus cuniculus [24], 0.4 µM. The results for the IC50 in the test filed under Oryctolagus cuniculus [25] and in the test listed under Oryctolagus cuniculus [26] were 0.3 µM and 100 µM, respectively. Besides, the ID50 in the test filed under Felis catus [8] was less than 10 µM.
